Results published in US8258128B2, “Organic compounds” (Novartis AG, priority 2006, dated 2012).
“And” between values parts separate entries of the source, which are not always exact repeats. Equal values may be shown once. Marks after values point to notes of the source that are not given here.

Experiments:
[1] = test system: rat carrageenan edema model; experiment: Carrageenan edema in the rat (paw swelling); assay type: in vivo
Experimental: Carrageenan edema in the rat: The effects of COMPOUND A are investigated in the carrageenan edema model. In this model an acute paw swelling is induced by the sub-plantar injection of carrageenan. The paw swelling has a duration of approximately 8 hours and is completely resolved at 24 hours. The model is used to assess anti-inflammatory activities of new therapeutics and is also sensitive to drugs such as COX-inhibitors like Diclofenac, which is used as a positive control compound in the model.
Method: Male OFA rats (5 animals/group) are treated orally with COMPOUND A (1, 3 and 9 mg/kg), Diclofenac (3 mg/kg) or vehicle (placebo formulation). One hour later (0 hours) the rats receive a 100 μl intra-plantar injection of a 1% w/v carrageenan solution in 0.9% saline in the hind paw and the diameter of the paw is measured by means of a micro-caliper. The paw diameter measurements are repeated 3 and 5 hours after injection of the carrageenan. Percentage inhibition of paw swelling at 3 and 5 hours is calculated by reference to vehicle treated animals (0% inhibition).
Edema is induced by a sub-plantar injection of carrageenan in the paw of the rat. Paw diameters are measured at the time of carrageenan injection (0 hours) and at 3 and 5 hours. Compounds are administered 1 hour before the carrageenan injection. COMPOUND A was dosed at 1, 3 and 9 mg/kg p.o. and Diclofenac at 3 mg/kg p.o.

[2] = test system: developing Adjuvant-induced arthritis in rats; experiment: Developing adjuvant-induced arthritis in rats (prophylactic dosing schedule); assay type: in vivo, rat; settings: for % inhibition: day 0 to day 14; for Swelling (mm) ± SEM: day 0 to day 14, readout day 14
Source text: Adjuvant arthritis can be treated using two different dosing schedules; either starting at the time of immunization with adjuvant (prophylactic dosing) or from day 15 when the arthritic response is already established (therapeutic dosing). It is more difficult to inhibit adjuvant arthritis with the therapeutic dosing schedule as compared to the prophylactic schedule. Both versions of adjuvant arthritis are, however, extremely sensitive to the effects of both non-selective COX inhibitors and COX 2 selective inhibitors where 70-90% inhibition of swelling can be achieved at appropriate doses. These models may be predictive for some of the processes thought to be relevant in rheumatoid arthritis.
Method: Female Wistar rats weighing 150-170 g (housed in standard conditions, 5 animals per cage, with food and water ad libitum) are injected i.d. at the base of the tail with 0.1 ml of mineral oil containing 0.6 mg of lyophilized heat-killed Mycobacterium tuberculosis. The rats are treated orally with COMPOUND A or placebo formulation from day 15 to day 22 (therapeutic dosing schedule) or with COMPOUND A from day 0 to day 14 after immunization (prophylactic dosing schedule). At the end of the experiment, the swelling of the tarsal joints is measured by means of a micro-caliper. For the comparison study to Diclofenac both compounds are given from day 15 to day 29 with readouts at day 22 and 29. Percentage inhibition of paw swelling is calculated by reference to placebo treated arthritic animals (0% inhibition) and placebo treated normal animals (100% inhibition). Five animals are used per group. Data are analyzed using Kruskal-Wallis non-parametric ANOVA followed by Dunn's Multiple Comparison test.

COC1=Nc2cc(Cl)ccc2/C(=C/C(=O)O)c2sc(Cl)cc21 [COMPOUND A, [2,7-Dichloro-10-methoxy-3-thia-9-aza-benzo[f]azulen-(4Z)-ylidene]-acetic acid]
% inhibition of paw swelling ([1]; 1 mg/kg p.o., 3 hrs after carrageenan): 58% | % inhibition of paw swelling ([1]; 1 mg/kg p.o., 5 hrs after carrageenan): 65% | % inhibition of paw swelling ([1]; 3 mg/kg p.o., 3 hrs after carrageenan): 67% | % inhibition of paw swelling ([1]; 3 mg/kg p.o., 5 hrs after carrageenan): 48% | % inhibition of paw swelling ([1]; 9 mg/kg p.o., 3 hrs after carrageenan): 88% | % inhibition of paw swelling ([1]; 9 mg/kg p.o., 5 hrs after carrageenan): 74% | inhibition in the carrageenan edema model (in words) ([1]; after 3 and 5 hours, dose of 1 to 9 mg/kg): dose-related inhibition | % inhibition ([2]; 0.3 mg/kg p.o.): 14.3 * % | Swelling (mm) ± SEM ([2]; 0.3 mg/kg p.o.): 10.9 ± 0.6 mm | % inhibition ([2]; 1 mg/kg p.o.): 57.1 * % | Swelling (mm) ± SEM ([2]; 1 mg/kg p.o.): 9.1 ± 0.5 mm | % inhibition ([2]; 3 mg/kg p.o.): 88% and 88.1 ** % | Swelling (mm) ± SEM ([2]; 3 mg/kg p.o.): 7.8 ± 0.2 mm | ED50 ([2]; Rattus norvegicus, po, prophylactic dosing schedule, read-out: calculated ED50): 0.8 mg/kg
